Here are results for 1 compound from PMC10059083, “Design, Synthesis, and Biological Evaluation of Novel Hydroxamic Acid-Based Organoselenium Hybrids” (Pharmaceuticals, 2023).

Assay [1] deals with S. aureus. The assay is described as follows: Agar diffusion assay, S. aureus. Format: cell-based, Staphylococcus aureus. Also noted: concentration or dose not given beside the values. The settings on record: ratio of inhibition zone of compound to that of positive control (ampicillin). From the text:
(§1) The encouraging antitumor properties of the OSe compounds motivated us to evaluate their corresponding antimicrobial activities against the C. albicans fungal strain, S. aureus Gram-positive bacteria, and E. coli Gram-negative bacteria. Therefore, we applied the agar diffusion and minimum inhibitory concentration (MIC) methods using clotrimazole antifungal and ampicillin antibacterial drugs as standards.
The products’ antimicrobial properties were examined according to the previously reported method, via agar well diffusion assay against E. coli, S. aureus, and C. albicans. A microdilution method was also used to record MICs (M), following the previously reported procedure. Experimental details can be found in the Supplementary Materials. […]
(§2) 1.1.2. The antimicrobial activity
The antimicrobial activities of the OSe compounds were evaluate d against C. albicans yeast as well as E. coli gram-negative and S. aureus gram-positive bacteria employing the agar well diffusion assay.
Briefly, a concentration of 1 mM was prepared for each compound by dissolving in DMSO. Paper discs of standard size […] were sterilized in an autoclave and soaked in 9 µL of the test compounds, and placed in the Petri dishes, which in turn contain a nutrient media (agar 9 g, peptone 5 g, and beef extract 3 g) seeded with the dedicated strain. Incubation lasted for 13 h at 36 0C.
Experiments were replicated three times and the antifungal clotrimazole and antibiotic ampicillin […]
In general terms: Agar diffusion results depend on both activity and mobility in agar.

The nature of assay [2]: DPPH radical scavenging assay. As for the experimental part:
The antioxidant activities of the OSe compounds were intensively investigated because these are usually the cause of their chemopreventive potency. Their redox activities were evaluated via DPPH and ABTS assays, using ascorbic acid as the standard. We spectrophotometrically measured the antioxidant efficiency of the OSe compounds by their ability to decolorise the DPPH^. and ABTS^. radicals at […] (Figure 2).
The compounds’ antioxidant properties were assessed by in vitro bioassays using DPPH and ABTS, following the reported method. Details are in the Supplementary Materials.
Figure 4 Estimation of the OSe compounds’ redox activities via DPPH and ABTS experiments. All tests are mean ± S.D. ABTS experiment: absorbance was followed at 734 nm for OSe compounds (50 µL, 1 mM in MeOH) and ABTS solution (60 µL). DPPH Absorbance was monitored at 517 nm for OSe compounds (200 µL, 1 mM in MeOH) and DPPH (400 µL) after 30 min. […]
1.1.3. The antioxidant activity
1.1.3.1. The DPPH bioassay
The hydrogen atom or electron donation ability of the corresponding compounds was measured by estimating the bleaching of the purple color of a methanolic solution of DPPH [5]. This spectrophotometric assay uses stable DPPH. reagent. The sample was prepared by adding […] of the OSe compounds (1 mM in methanol) to […] DPPH in methanol. After 30 min of incubation in the dark, the absorbance was read against a blank at […]. Ascorbic acid (vitamin C) and ebselen were used as standard antioxidants (positive control). A blank sample was run without DPPH. A negative control sample was run using methanol instead of the sample. The radical scavenging activity was calculated using the following equation:
Inhibition%= (Ablank-Asample)/(Ablank)*100. […]
On the technique in general: Loss of DPPH colour is used to gauge radical scavenging.

The subject of assay [3] is E. coli. Description: Agar diffusion assay, E. coli. Format: cell-based, Escherichia coli.
From the text: as §1
(§3) The products’ antimicrobial properties were examined according to the previously reported method, via agar well diffusion assay against E. coli, S. aureus, and C. albicans. A microdilution method was also used to record MICs (M), following the previously reported procedure. Experimental details can be found in the Supplementary Materials.
1.1. […]
as §2
The antimicrobial activities of the OSe compounds were evaluate d against C. albicans yeast as well as E.
coli gram-negative and S. aureus gram-positive bacteria employing the agar well diffusion assay. […]
5 g, and beef extract 3 g) seeded with the dedicated strain. Incubation lasted for 13 h at 36 0C.
Experiments were replicated three times and the antifungal clotrimazole and antibiotic ampicillin
1.1.3. […]

Assay [4] has as its system E. coli. Description: MIC by microdilution, E. coli. The settings on record: Escherichia coli; microdilution method. Format: cell-based.
From the text: as §1, §3
(§4) Briefly, a concentration of 1 mM was prepared for each compound by dissolving in DMSO. Paper discs of standard size […] were sterilized in an autoclave and soaked in 9 µL of the test compounds, and placed in the Petri dishes, which in turn contain a nutrient media (agar 9 g, peptone 5 g, and beef extract 3 g) seeded with the dedicated strain. Incubation lasted for 13 h at 36 0C. […]
Background: Dilution methods test growth across graded concentrations, often in twofold steps.

Assay [5] concerns C. albicans. Description: MIC by microdilution, C. albicans. The settings on record: Candida albicans, read-out: MIC C. albicans. Format: cell-based.
From the text: as §1, §3, §4

Assay [6] relates to S. aureus. The assay is described as follows: MIC by microdilution, S. aureus. Format: cell-based. The settings on record: Staphylococcus aureus; microdilution method.
From the text: as §1, §3, §4

Assay [7] concerns C. albicans. Description: Agar diffusion assay, C. albicans. Format: cell-based, Candida albicans.

≈ marks a conversion by molar mass, not a printed value. Where “and” joins values, the source holds several entries; their conditions need not be identical. Equal entries are not always repeated.

As a reminder, the IC50 is the concentration that gives 50% inhibition. A word on the MIC: it is the lowest concentration found to suppress growth. With `Nc1ccc([Se]CC(=O)NOCc2ccccc2)cc1` [Compound 8, 2-((4-Aminophenyl)selanyl)-N-(benzyloxy)acetamide], the “S. aureus IA% (activity index)” value in the assay with S. aureus [1] turned out to be 90.5%. Moreover, in assay [2] (compounds 200 µL, 1 mM in MeOH, DPPH 400 µL, 30 min, absorbance at 517 nm), the “antioxidant (scavenging) activity in the DPPH assay” value is 85.1% and 92.3%. Further, 23.67 ± 0.21 µM corresponded to half-maximal inhibition in assay [2] (concentration causing 50% decrease in absorbance, DPPH assay) (IC50). For the same compound, the “E. coli ZID (inhibition zone diameter)” value in the assay on E. coli [3] (6-mm disks soaked with 20 μM of the OSe agents) was 16 mm. Moreover, the “E. coli IA% (activity index)” value in the assay on E. coli [3] (ratio of inhibition zone of compound to that of positive control (ampicillin)) is recorded as 69.6%. For the same compound, the MIC in the assay with E. coli [4] came out at 8 µM (≈ 2.68 µg/mL); in the assay on C. albicans [5], 4 µM (≈ 1.34 µg/mL); against S. aureus [6], 4 µM (≈ 1.34 µg/mL). Moreover, in the assay with C. albicans [7] (Candida albicans, read-out: C. albicans ZID (inhibition zone diameter)), the zone of inhibition at 20 µM came to 22 mm. Also, the “C. albicans IA% (activity index)” value with C. albicans [7] (ratio of inhibition zone of compound to that of positive control (clotrimazole)) is given as 91.7%.
